According to PMC12669672, “Structural insights into selective and dual antagonism of EP2 and EP4 prostaglandin receptors” (The EMBO Journal, 2025):
Values joined by “and” are separate entries in the source; they are usually repeats but may differ in a detail not shown here. Equal values may be shown once. Read-outs that look alike come from different tables or passages of the source.

Key:
Assay in all cases: GloSensor cAMP assay, antagonism of PGE2-induced cAMP
Type in all cases: cell-based
EP2 S86A = target: T1, EP2 S86A (Homo sapiens, UniProt P43116, S86A); settings: single experiments 1st-3rd
T1 construct: The full-length EP2 or EP4 was cloned into the pcDNA3.1 vector; FLAG (N); expressed in transfected cells; host or cells: AD293 cells
Description: (§1) The full-length EP2 or EP4 was cloned into the pcDNA3.1 vector (Invitrogen), incorporating an N-terminal FLAG tag. AD293 cells were seeded in six-well plates containing DMEM supplemented with 10% dialyzed FBS 1 day prior to transfection. Following overnight growth, cells were transfected with a 1:1 ratio of receptor construct and GloSensor22F cAMP biosensor (Promega) plasmids.
(§2) Twenty-four hours post-transfection, the cells were transferred to CO2-independent media containing 2% GloSensor cAMP Reagent (Promega) and distributed into 384-well assay plates at a density of 4000 cells per well in 10 μL. […] The plates were then incubated at 37 °C for an additional hour before luminescence measurements were taken using an EnVision plate reader.
(§3) Data analysis was performed using GraphPad Prism software v8.0.1. A nonlinear regression analysis, employing a sigmoidal dose–response model, was conducted to determine the Emax values and half-maximum inhibitory concentrations (IC50) for each compound tested.

EP2 S305A = target: T2, EP2 S305A (Homo sapiens, UniProt P43116, S305A); settings: single experiments 1st-3rd
T2 construct: The full-length EP2 or EP4 was cloned into the pcDNA3.1 vector; FLAG (N); expressed in transfected cells; host or cells: AD293 cells
Description: as §1, §2, §3

EP2 S308A = target: T3, EP2 S308A (Homo sapiens, UniProt P43116, S308A); settings: single experiments 1st-3rd
T3 construct: The full-length EP2 or EP4 was cloned into the pcDNA3.1 vector; FLAG (N); expressed in transfected cells; host or cells: AD293 cells
Description: as §1, §2, §3

EP2 T82A = target: T4, EP2 T82A (Homo sapiens, UniProt P43116, T82A); settings: 1 h, single experiments 1st-3rd, Fig. 3D, read-out: % cAMP activity (normalized to WT)
T4 construct: The full-length EP2 or EP4 was cloned into the pcDNA3.1 vector; FLAG (N); expressed in transfected cells; host or cells: AD293 cells
Description: as §1, §2, §3

EP4 WT = target: T5, EP4 WT (Homo sapiens, UniProt P35408); settings: 1 h, single experiments 1st-3rd, Fig. S1A
T5 construct: The full-length EP2 or EP4 was cloned into the pcDNA3.1 vector; FLAG (N); expressed in transfected cells; host or cells: AD293 cells
Description: as §1, §2, §3

EP2 W186A = target: T6, EP2 W186A (Homo sapiens, UniProt P43116, W186A); settings: 1 h, single experiments 1st-3rd, Fig. 3D, read-out: % cAMP activity (normalized to WT)
T6 construct: The full-length EP2 or EP4 was cloned into the pcDNA3.1 vector; FLAG (N); expressed in transfected cells; host or cells: AD293 cells
Description: as §1, §2, §3

[1] = 1 h, PF-04418948 log([M]) -9, Fig. 3D, read-out: % cAMP activity (normalized to WT)
[2] = 1 h, PF-04418948 log([M]) -10, Fig. 3D, read-out: % cAMP activity (normalized to WT)
[3] = 1 h, PF-04418948 log([M]) -11, Fig. 3D, read-out: % cAMP activity (normalized to WT)
[4] = 1 h, PF-04418948 log([M]) -12, Fig. 3D, read-out: % cAMP activity (normalized to WT)
[5] = 1 h, PF-04418948 log([M]) -7, Fig. 3D, read-out: % cAMP activity (normalized to WT)
[6] = 1 h, PF-04418948 log([M]) -8, Fig. 3D, read-out: % cAMP activity (normalized to WT)

T3 sequence (P43116 whole entry S308A): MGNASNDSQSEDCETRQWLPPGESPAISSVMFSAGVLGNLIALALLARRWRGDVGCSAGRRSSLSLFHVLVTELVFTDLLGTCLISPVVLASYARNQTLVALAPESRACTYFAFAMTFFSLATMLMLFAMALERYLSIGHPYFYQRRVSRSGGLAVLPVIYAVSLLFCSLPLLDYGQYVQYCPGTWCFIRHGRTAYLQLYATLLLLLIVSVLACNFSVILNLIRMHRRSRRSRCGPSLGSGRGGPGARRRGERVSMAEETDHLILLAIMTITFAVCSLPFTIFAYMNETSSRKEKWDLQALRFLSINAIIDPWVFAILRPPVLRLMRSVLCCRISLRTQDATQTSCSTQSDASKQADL
T5 sequence (P35408 whole entry): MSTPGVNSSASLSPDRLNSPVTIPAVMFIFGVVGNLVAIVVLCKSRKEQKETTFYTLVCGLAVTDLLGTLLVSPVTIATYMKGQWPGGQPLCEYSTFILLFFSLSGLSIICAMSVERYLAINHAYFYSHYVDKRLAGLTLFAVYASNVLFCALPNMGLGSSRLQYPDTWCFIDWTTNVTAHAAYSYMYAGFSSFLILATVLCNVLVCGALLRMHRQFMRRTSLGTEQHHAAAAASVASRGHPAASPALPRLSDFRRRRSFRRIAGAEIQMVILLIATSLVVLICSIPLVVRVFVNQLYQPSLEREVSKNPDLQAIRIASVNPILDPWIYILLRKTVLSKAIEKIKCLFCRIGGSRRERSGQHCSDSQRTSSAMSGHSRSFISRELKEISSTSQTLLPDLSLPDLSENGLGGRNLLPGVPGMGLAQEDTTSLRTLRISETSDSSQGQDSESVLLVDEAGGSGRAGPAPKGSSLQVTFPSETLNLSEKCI
T2 sequence (P43116 whole entry S305A): as the sequence (P43116 whole entry S308A) above, with S305A, A308S counted along it
T4 sequence (P43116 whole entry T82A): as the sequence (P43116 whole entry S308A) above, with T82A, A308S counted along it
T1 sequence (P43116 whole entry S86A): as the sequence (P43116 whole entry S308A) above, with S86A, A308S counted along it
T6 sequence (P43116 whole entry W186A): as the sequence (P43116 whole entry S308A) above, with W186A, A308S counted along it

With `COc1ccc2cc(OCC3(C(=O)O)CN(C(=O)c4ccc(F)cc4)C3)ccc2c1` [PF-04418948] the remaining activity at 0.001 µM (EP2 S86A; [1]) was 61.5%, the remaining activity at 0.0001 µM (EP2 S86A; [2]) was 63.4% and the remaining activity at 10 pM (EP2 S86A; [3]) was 75.5%. The remaining activity at 1 pM (EP2 S86A; [4]) was 72.4%, the “cAMP activity (∆pIC50 from EP2 WT)” value (EP2 S86A; Fig. 3E) was 0.200 and 0.410 and 0.340 and the remaining activity at 0.1 µM (EP2 S305A; [5]) was 22.4%. The remaining activity at 0.01 µM (EP2 S305A; [6]) was 45.9%, the remaining activity at 0.0001 µM (EP2 S305A; [2]) was 47.9% and the remaining activity at 10 pM (EP2 S305A; [3]) was 41.3%. The “cAMP activity (∆pIC50 from EP2 WT)” value (EP2 S305A; Fig. 3E) was -1.170 and -1.396 and -1.144, the remaining activity at 0.1 µM (EP2 S308A; [5]) was 27.6% and the remaining activity at 0.01 µM (EP2 S308A; [6]) was 78.6%. For the same compound, the remaining activity at 0.001 µM (EP2 S308A; [1]) was 89.1%, the remaining activity at 0.0001 µM (EP2 S308A; [2]) was 86.2% and the remaining activity at 10 pM (EP2 S308A; [3]) was 84.2%. For the same compound, the remaining activity at 1 pM (EP2 S308A; [4]) was 83.9%, the “cAMP activity (∆pIC50 from EP2 WT)” value (EP2 S308A; Fig. 3E) was -0.810 and -0.830 and -1.090 and the remaining activity at 1 µM (EP2 T82A; PF-04418948 log([M]) -6) was 9.17%. The remaining activity at 0.1 µM (EP2 T82A; PF-04418948 log([M]) -7) was 19.3%, the remaining activity at 0.01 µM (EP2 T82A; PF-04418948 log([M]) -8) was 47.4% and the remaining activity at 0.001 µM (EP2 T82A; PF-04418948 log([M]) -9) was 55.3%. For the same compound, the remaining activity at 100 µM (EP4 WT; read-out: % cAMP activity EP4 (normalized to Grapiprant), ligand log([M]) -4.00) was 99.1%, the remaining activity at […] (EP4 WT; read-out: % cAMP activity EP4 (normalized to Grapiprant), ligand log([M]) -4.70) was 107% and the remaining activity at […] (EP4 WT; read-out: % cAMP activity EP4 (normalized to Grapiprant), ligand log([M]) -5.40) was 103%. It also gave a remaining activity at […] (EP4 WT; read-out: % cAMP activity EP4 (normalized to Grapiprant), ligand log([M]) -6.10) of 106%, a remaining activity at 0.03236 µM (EP4 WT; read-out: % cAMP activity EP4 (normalized to Grapiprant), ligand log([M]) -7.49) of 93.7% and a remaining activity at 0.001288 µM (EP4 WT; read-out: % cAMP activity EP4 (normalized to Grapiprant), ligand log([M]) -8.89) of 94%. The remaining activity at 1 µM (EP2 W186A; PF-04418948 log([M]) -6) was 7.94%, the remaining activity at 0.1 µM (EP2 W186A; PF-04418948 log([M]) -7) was 18% and the remaining activity at 0.01 µM (EP2 W186A; PF-04418948 log([M]) -8) was 24.6%. For the same compound, the remaining activity at 0.001 µM (EP2 W186A; PF-04418948 log([M]) -9) was 23.9%, the remaining activity at 0.0001 µM (EP2 W186A; PF-04418948 log([M]) -10) was 24.4% and the remaining activity at 10 pM (EP2 W186A; PF-04418948 log([M]) -11) was 29.3%. The remaining activity at 1 pM (EP2 W186A; PF-04418948 log([M]) -12) was 27.9%.
